The values that follow come from patent US6342534B1, “Analogs of biologically active, naturally occurring polyamines, pharmaceutical compositions and methods of treatment” (University of Florida Research Foundation, Inc., priority 1986, dated 2002).

One assay relates to L1210 cells. Description: Growth inhibition of L1210 cells (IC50 at 48/96 h). It is filed as cell-based. The note with it: Mus musculus.
For a further assay, the system named is calf thymus DNA. The experiment in a line: Displacement of ethidium iodide from calf thymus DNA. It counts as binding. The settings on record: compared with natural polyamines. An excerpt:
(§1) If there is any significance to the role of charge interaction in the biological properties of the polyamine analogs, alterations in the polyamine methylene backbone should have significant impact on the compound's biological properties. […] The trifluoroethyl group substantially reduces the pKa of the terminal nitrogens and they are no longer protonated [J. Org. Chem., Vol. 24, “Fluorine containing nitrogen compounds—I Trifluoroethylamines,” Bissel et al, pages 1256-1259 (1959)]. Even though the dimensions of bis-β,β,β-trifluoroethylspermine and diethylspermine are essentially the same, what was once a tetracationic spermine analog is now only a dication. […] The same phenomenon is observed when one acetylates a terminal nitrogen of spermine. The amide nitrogen is not protonated at physiological pH, and the compound has no anti-neoplastic properties and behaves very much like spermidine in displacing ethidium iodide from DNA.

In assay [1] the test system is a variety of tumors in cell culture. Description: Anti-neoplastic activity against tumors in cell culture. It is filed as cell-based.
Description: as §1

The conditions of assay [2]: cited from earlier work.
The mark [3] stands for this setting: Table 1, 48 h, read-out: IC50 (μM) of L1210 cells at 48 h.
[4] abbreviates: Table 1, 96 h, read-out: IC50 (μM) of L1210 cells at 96 h.

Where two headings read alike, the source gives them in different places.

A word on the IC50: it is the concentration that inhibits the measured activity by half. As for `C(CCNCC1CCNCC1)CNCC1CCNCC1`, the IC50 amounted to 2 µM in the assay with L1210 cells (setting [3]) and 0.2 µM in the assay on L1210 cells (setting [4]). Regarding `c1cc(CNCCCCNCc2ccncc2)ccn1`, the IC50 was over 100 µM with L1210 cells (setting [3]) and 90 µM in the assay on L1210 cells (setting [4]).

As to `C(CCNCCC1CCNCC1)CNCCC1CCNCC1`, the IC50 in the assay with L1210 cells (setting [3]) is over 100 µM; with L1210 cells (setting [4]), 0.25 µM. Turning to `c1cc(CCNCCNCCc2ccncc2)ccn1`, the IC50 in the assay with L1210 cells (setting [3]) and with L1210 cells (setting [4]) was over 100 µM throughout. Regarding `FC(F)(F)CNCCCNCCCCNCCCNCC(F)(F)F` [BTFESPM, bis-β,β,β-trifluoroethylspermine], the “ability to displace ethidium iodide from calf thymus DNA” value with calf thymus DNA was “behave more like putrescine than spermine”. Further, in assay [1], the anti-neoplastic activity result is recorded as “essentially disappears”.

Regarding `CCNCCCCNCCCCNCCCCNCC` [DEHSPM, diethyl-homospermine], in assay [2], the “SAT up-regulation (factor)” value is “little impact on SAT levels”. Turning to `CCNCCCNCCCNCCCNCC` [DENSPM, diethylnorspermine], the “SAT up-regulation (factor)” value in assay [2] was 1,200 fold. For `CCNCCCNCCCCNCCCNCC` [DESPM, N^1,N^12-diethylspermine], in assay [1], the anti-neoplastic activity result is listed as “quite active”. Further, the “SAT up-regulation (factor)” value in assay [2] was 200 fold.
